These results are taken from patent US20260242392A1, “ARYL TRICYCLIC STING AGONISTS AND USE THEREOF” (SHENZHEN GENUINE BIOTECHNOLOGY CO., LTD., priority 2023, published 2026).

For series [1] the following is noted: mouse; for oral availability: ICR, in vivo, 5 mg/kg; for clearance in vivo compared to MAS-2: po.
Procedure: (§1) The doses for IV and PO were 2 mg/kg and 5 mg/kg, respectively. Blood was collected at different time points after IV and PO administration and placed in heparinized tubes. Plasma was separated and frozen in a −20° C. refrigerator. Plasma was processed and then analyzed by LCMS/MS. Pharmacokinetic parameters of drug administration were calculated using a non-compartmental model in WinNonlin 8.2 software.
The nature of series [2]: in vivo. The conditions noted are these: ICR, mouse.
Procedure: as §1
A short description of series [3]: Pharmacokinetic (PK) study in ICR mice, IV and PO. Conditions: for AUC(0-t) / Vd / clearance / half-life / Cmax / bioavailability: ICR, mouse, plasma; for oral availability: oral administration at 5 mg/kg.
Procedure: as §1
Series [4] concerns mouse colorectal cancer CT26 cell line. Briefly: Subcutaneous tumor model of female Balb/c mice transplanted with mouse colorectal cancer CT26 cell line. In kind it is in vivo. Conditions: separate CT26 model cohort, 20 mg/kg. How it is done: Pharmacodynamic Evaluation of Test Compounds in a Subcutaneous Tumor Model of Female Balb/c Mice Transplanted with Mouse Colorectal Cancer CT26 Cell Line
CT-26 tumor cells were cultured in a suitable culture medium. Cells in the exponential growth phase were collected and subcutaneously inoculated into the right back of experimental mice. Tumor growth was observed regularly after inoculation. When the tumor reached an average volume of approximately 100 mm^3, mice were randomly grouped based on tumor size and body weight for administration. The day of grouping was defined as Day 0. Test compounds were administered orally once weekly for 4 times. The efficacy was evaluated by calculating the tumor growth inhibition (TGI) based on the tumor volume, and the safety was evaluated based on the changes in animal body weight and death. […] All test compounds were well-tolerated.

Series [5] addresses T1, Sting-HAQ (Homo sapiens, UniProt Q86WV6, G230A/H232R/R293Q/R71H).
T1 construct: host or cells: HEK293-HAQ Luc reporter cell line
In words: HEK293-HAQ Luc reporter gene assay (Steady-Glo luciferase). The conditions noted are these: 24 h incubation; read-out: HEK293-HAQ Luc Report Assay (24 h) EC50. It counts as cell-based. How it is done: Test Principle: The HEK293-HAQ Luc reporter cell line utilizes the chemiluminescent reaction property of luciferase binding to its substrate beetle luciferin. The regulatory elements of the Sting-HAQ gene transcription are cloned upstream/downstream of the firefly luciferase gene to construct a luciferase recombinant plasmid. The recombinant plasmid is then transfected into HEK293 cells. After treatment with compounds, the cells are lysed, and the luciferase activity is measured using the Steady-Glo® detection system (Cat #E2550) manufactured by Promega Corporation. The effect of compounds on the Sting-HAQ regulatory elements is determined based on the level of luciferase activity. The Steady Glo® Luciferase Assay System enables high-throughput evaluation of the degree of activation of reporter cell lines by compounds through the activity of luciferase in mammalian cells, and provides long-term stable luminescence when used with reporter cell lines. The detection system can sustain a signal half-life of more than 5 hours in the test cell culture medium, enabling uniform measurement without sample pretreatment.
Test Method: Complete medium (DMEM+10% FBS+1% P/S) was prepared. The Hek293-HAQ Luc reporter cell line was resuscitated and passaged twice. Cells in logarithmic growth phase were collected by centrifugation, counted, and resuspended to an appropriate concentration. The cell suspension was seeded into a 96-well plate at a density of 20000 cells/well, with 100 µL of the cell suspension added per well. Test compounds were prepared into stock solutions with DMSO, and serially diluted 3-fold with DMSO starting from the highest concentration of 100 mM to obtain 9 concentration gradients. The test compounds were diluted 47.62-fold with culture medium, and 5 μL of each dilution was added to the 96-well plate containing 100 μL of cells. To Min control wells were added 5 μL of DMSO-cell culture medium mixture (with a final DMSO concentration of 0.1%), while Max control wells received 5 μL of a positive reference compound. The plate was incubated at 37° C. in an incubator with 5% carbon dioxide and relative humidity above 90% for 24 h. Subsequently, 75 μL/well of […] was added to terminate the reaction. After shaking at 305 rpm for 10 min, the plates were detected on Envision. The […] value RLU of each well was read, and the activation rate was calculated according to the formula: Activation %=(Sample−Ave_L)/(Ave_H−Ave_L)×100, where Ave_L: RLU Min (0.1% DMSO), Ave_H: RLU Max (positive reference compound). The activation rate, Activation % (Y), corresponding to each concentration (X), was entered in EXCEL. The half-maximal effective concentration EC50 value of each compound was calculated according to the built-in four-parameter fitting formula Y=Bottom+(Top−Bottom)/(1+10^((LogEC50−X)*HillSlope)) using the XLfit plug-in.
In general terms: Reporter assays use an easily measured gene product as a stand-in for the process of interest.

In series [6] the target is human STING protein (Homo sapiens, UniProt Q86WV6). The conditions noted are these: cited from earlier work.
Series [7] relates to human non-small cell lung cancer. The conditions noted are these: in combination with standard chemotherapy; cited from earlier work.
[8] abbreviates: mouse PK, injection 2 mg/kg and oral 5 mg/kg.

The structures appear in SMILES notation. pEC50: −log10 of the molar value. Like-named read-outs stand apart in the source and are kept apart here.

Sequence of human STING protein (Q86WV6 whole entry): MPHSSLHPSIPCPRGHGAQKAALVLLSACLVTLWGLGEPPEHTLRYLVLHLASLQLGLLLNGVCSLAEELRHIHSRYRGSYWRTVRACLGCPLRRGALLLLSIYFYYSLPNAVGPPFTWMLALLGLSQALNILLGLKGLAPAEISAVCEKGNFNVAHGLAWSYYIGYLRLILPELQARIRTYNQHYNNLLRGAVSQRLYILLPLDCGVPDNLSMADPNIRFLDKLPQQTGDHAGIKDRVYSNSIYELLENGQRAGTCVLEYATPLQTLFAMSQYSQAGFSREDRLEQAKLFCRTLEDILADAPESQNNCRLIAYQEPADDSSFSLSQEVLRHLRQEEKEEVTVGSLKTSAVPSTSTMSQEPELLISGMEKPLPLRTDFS
T1 sequence (Q86WV6 whole entry R71H/G230A/H232R/R293Q): as the sequence (Q86WV6 whole entry) above, with R71H, G230A, H232R, R293Q counted along it

Take `COc1cc2sc(C(=O)C[C@H](C)C(=O)O)cc2c2ncoc12` [Example 46, (S)-4-(4-methoxythieno[2′,3′:5,6]benzo[1,2-d]oxazol-7-yl)-2-methyl-4-oxobutanoic acid]: in series [1], the oral availability was 64.6% and the “clearance in vivo compared to MAS-2” value was “lower clearance”. Besides, in series [2] (iv, 2 mg/kg), the exposure AUC(0-t) (in general, the area under the concentration-time curve up to a stated or last time point) stood at 3540 ng·h/mL; the Vd was found to be 0.32 L/kg; the clearance is 9.38 mL/min/kg; the half-life – broadly, the time needed for the level to fall by half in the phase considered – is 1.72 h. Besides, in series [2] (po, 5 mg/kg), the AUC(0-t) worked out at 5710 ng·h/mL, the highest level (Cmax) was 6480 ng/mL, the bioavailability is 64.6% and the half-life was 1.61 h.
In series [3] (iv, 2 mg/kg), `CC[C@@H](CC(=O)c1cc2c(cc(OC)c3ocnc32)s1)C(=O)O` [Compound 51] had an AUC(0-t) of 3240 ng·h/mL, a Vd of 1.28 L/kg, a clearance of 10.2 mL/min/kg and a half-life of 4.36 h. Also, in series [3] (po, 5 mg/kg), the AUC(0-t) is 8550 ng·h/mL, the highest concentration (Cmax) (usually the peak of the concentration-time curve) was found to be 4550 ng/mL, the bioavailability was found to be 105% and the half-life was 3.1 h. For the same compound, in series [3] (setting [8]), the “clearance in vivo compared to MAS-2” value is “lower clearance” and the “exposure in vivo compared to MAS-2” value is given as “higher exposure”. This compound also yielded an oral availability in series [3] (mouse PK) of 100%. The “tumor growth inhibition (TGI)” value in series [4] turned out to be 99%.
`CC[C@@H](CC(=O)c1cc2c(cc(OC)c3oc(C)nc32)s1)C(=O)O` [Compound 53]: the “tumor growth inhibition (TGI)” value in series [4] was found to be 101%.
In the case of `COc1cc2cc(C(=O)CCC(=O)O)sc2cc1OC` [MAS-2, reference compound], the negative logarithm of the EC50 (pEC50) – broadly, −log10 of the EC50, conventionally taken in molar units – in series [5] was 5.59. In series [3] (iv, 2 mg/kg), this compound gave an AUC(0-t) of 1010 ng·h/mL, a Vd of 0.343 L/kg, a clearance of 33 mL/min/kg and a half-life of 0.431 h. Also, in series [3] (po, 5 mg/kg), the AUC(0-t) amounted to 1530 ng·h/mL, the peak level (Cmax) was 2810 ng/mL, the bioavailability was 61.2% and the half-life was 1.63 h. Also, the oral availability in series [3] (mouse PK) turned out to be 61.23%.
For `Cc1ccc2c(=O)c3cccc(CC(=O)O)c3oc2c1C` [DMXAA], the “activation of human STING protein” value in series [6] was “fails to activate”. The clinical efficacy result in series [7] was “failed to show significant efficacy”.
Consider `COc1cc2sc(C(=O)C[C@H](C)C(=O)O)cc2c2cc(F)oc12` [Example 62, (S)-4-(2-fluoro-4-methoxythieno[3,2-e]benzofuran-7-yl)-2-methyl-4-oxobutanoic acid], for which, in series [3] (iv, 2 mg/kg), the AUC(0-t) is 4300 ng·h/mL, the Vd amounted to 0.49 L/kg, the clearance stood at 7.56 mL/min/kg and the half-life was 2.68 h. For the same compound, in series [3] (po, 5 mg/kg), the exposure AUC(0-t) came to 10200 ng·h/mL, the Cmax turned out to be 10100 ng/mL, the bioavailability stood at 92.9% and the half-life was 3.05 h.
In series [3] (iv, 2 mg/kg), `COc1cc2sc(C(=O)CCC(=O)O)cc2c2ncoc12` [Compound 1, 4-(4-methoxythieno[2′,3′:5,6]benzo[1,2-d]oxazol-7-yl)-4-oxobutanoic acid] gave an AUC(0-t) of 660 ng·h/mL, a Vd of 0.76 L/kg, a clearance of 50.3 mL/min/kg and a half-life of 0.658 h. Further, in series [3] (po, 5 mg/kg), the AUC(0-t) is 757 ng·h/mL, the Cmax is 1270 ng/mL, the bioavailability worked out at 47% and the half-life is 1.56 h.
For `COc1cc2sc(C(=O)CC(C)C(=O)O)cc2c2ncoc12` (stereo not shown) [Example 12], in series [1], the oral availability is on record as 100% and the “clearance in vivo compared to MAS-2” value is “lower clearance”. Further, in series [2] (iv, 2 mg/kg), the AUC(0-t) was determined as 1570 ng·h/mL, the Vd was found to be 0.49 L/kg, the clearance is 21.2 mL/min/kg and the half-life was 1.5 h. For the same compound, in series [2] (po, 5 mg/kg), the AUC(0-t) turned out to be 4060 ng·h/mL, the Cmax was determined as 6020 ng/mL, the bioavailability was 104% and the half-life is 2 h.
